The source of these data is patent US9409865B2, “Modulators of methyl modifying enzymes, compositions and uses thereof” (Constellation Pharmaceuticals, Inc., priority 2011, dated 2016).

As a reminder, the IC50 is the concentration that inhibits the measured activity by half.

One experiment addresses Y641N EZH2 (Homo sapiens, UniProt Q15910, Y641N). Description: Y641N EZH2 assay (as the EZH2 assay, with H3K27Me2 oligonucleosomes as substrate). The format is biochemical. Particulars: Y641N EZH2 mutant, reconstituted H3K27Me2 oligonucleosomes as substrate; top concentration 80 μM. How it is done:
(§1) Assays were carried out by mixing rPRC2 together with biotinylated oligonucleosome substrates in the presence of the radio-labeled enzyme co-factor, S-adenosyl-L-methionine (^3H SAM) (Perkin Elmer) and monitoring the enzymatically mediated transfer of tritiated methyl groups from ^3H SAM to histone lysine residues. The amount of resulting tritiated methylhistone product was measured by first capturing the biotinylated oligonucleosomes in streptavidin (SAV) coated FlashPlates (Perkin Elmer), followed by a wash step to remove un-reacted ^3H SAM, and then counting on a TopCount NXT 384 well plate scintillation counter (Perkin Elmer). The final assay conditions for EZH2 were as follows: 50 mM Tris Buffer pH 8.5, 1 mM DTT, 69 μM Brij-35 detergent, 5.0 mM MgCl2, 0.1 mg/mL BSA, 0.2 μM ^3H SAM, 0.2 μM biotinylated oligonucleosomes, 3.6 μM H3K27me3 peptide and 2 nM EZH2.
(§2) Ten point dose response curves were generated by dispensing varying amounts of the 10 mM compound solution in 10 wells of the 384 well plate (Echo; Labcyte), pure DMSO was then used to backfill the wells to insure all wells have the same amount of DMSO. A 12.5 μL volume of the HMT enzyme, H3K27me3 peptide and oligonucleosome substrate in assay buffer was added to each well of the assay plate using a Multidrop Combi (ThermoFisher). Compounds were pre-incubated with the enzyme for 20 min, followed by initiation of the methyltransferase reaction by addition of 12.5 μL of 3H SAM in assay buffer (final volume=25 μL). The final concentrations of compounds ranged from a top default concentration of 80 μM down to 0.16 μM in ten 2-fold dilution steps. Reactions were carried out for 60 minutes and quenched with 20 μL per well of 1.96 mM SAH, 50 mM Tris PH 8.5, 200 mM EDTA. Stopped reactions were transferred to SAV coated Flashplates (Perkin Elmer), incubated for 120 min, washed with a plate washer, and then read on the TopCount NXT (1.0 min/well) to measure the amount of methylhistone product formed during the reaction.
Assay for Y641N EZH2 was performed as above using reconstituted H3K27Me2 oligonucleosomes as substrate.

A further experiment addresses EZH2 (Homo sapiens, UniProt Q15910). In words: EZH2 assay (rPRC2, 3H SAM methyl transfer to biotinylated oligonucleosomes). The format is biochemical. Particulars: rPRC2, 2 nM EZH2, biotinylated oligonucleosomes, 0.2 μM 3H SAM; top concentration 80 μM. As for the experimental part: as §1, §2

Chain of Y641N EZH2 (Q15910 whole entry Y641N): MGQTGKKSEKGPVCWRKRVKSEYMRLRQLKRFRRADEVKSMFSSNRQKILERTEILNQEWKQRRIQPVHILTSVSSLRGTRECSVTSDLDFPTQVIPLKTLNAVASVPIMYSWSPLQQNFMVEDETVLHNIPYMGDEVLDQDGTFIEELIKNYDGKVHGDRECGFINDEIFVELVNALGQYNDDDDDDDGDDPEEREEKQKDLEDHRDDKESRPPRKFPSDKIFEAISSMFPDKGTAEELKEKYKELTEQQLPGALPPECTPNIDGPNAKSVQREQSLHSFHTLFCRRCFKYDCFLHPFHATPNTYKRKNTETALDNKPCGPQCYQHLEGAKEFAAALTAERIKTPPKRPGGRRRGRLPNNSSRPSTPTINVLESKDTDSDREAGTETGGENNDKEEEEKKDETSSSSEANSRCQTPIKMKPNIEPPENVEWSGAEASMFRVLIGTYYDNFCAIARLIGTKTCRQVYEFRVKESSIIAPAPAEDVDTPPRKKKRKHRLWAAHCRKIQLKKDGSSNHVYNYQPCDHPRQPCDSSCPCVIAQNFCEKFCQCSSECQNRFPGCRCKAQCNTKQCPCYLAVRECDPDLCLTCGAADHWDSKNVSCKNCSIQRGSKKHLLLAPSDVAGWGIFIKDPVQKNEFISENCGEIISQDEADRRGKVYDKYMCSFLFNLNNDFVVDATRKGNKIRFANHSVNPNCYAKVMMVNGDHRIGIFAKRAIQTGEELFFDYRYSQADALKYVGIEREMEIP
Chain of Y641N EZH2 (O75530 whole entry partner): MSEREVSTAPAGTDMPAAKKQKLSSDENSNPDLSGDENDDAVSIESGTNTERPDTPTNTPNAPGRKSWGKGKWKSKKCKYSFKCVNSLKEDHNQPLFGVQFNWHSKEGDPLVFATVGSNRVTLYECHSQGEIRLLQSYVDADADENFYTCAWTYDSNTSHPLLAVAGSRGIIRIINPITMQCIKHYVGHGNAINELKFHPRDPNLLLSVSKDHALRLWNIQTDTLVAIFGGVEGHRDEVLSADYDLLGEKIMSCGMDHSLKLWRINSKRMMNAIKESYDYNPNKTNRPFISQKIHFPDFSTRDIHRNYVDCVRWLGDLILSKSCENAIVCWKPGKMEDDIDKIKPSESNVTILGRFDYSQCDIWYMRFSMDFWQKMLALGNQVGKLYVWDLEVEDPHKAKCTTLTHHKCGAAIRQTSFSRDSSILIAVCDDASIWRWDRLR
Chain of Y641N EZH2 (Q15022 whole entry partner): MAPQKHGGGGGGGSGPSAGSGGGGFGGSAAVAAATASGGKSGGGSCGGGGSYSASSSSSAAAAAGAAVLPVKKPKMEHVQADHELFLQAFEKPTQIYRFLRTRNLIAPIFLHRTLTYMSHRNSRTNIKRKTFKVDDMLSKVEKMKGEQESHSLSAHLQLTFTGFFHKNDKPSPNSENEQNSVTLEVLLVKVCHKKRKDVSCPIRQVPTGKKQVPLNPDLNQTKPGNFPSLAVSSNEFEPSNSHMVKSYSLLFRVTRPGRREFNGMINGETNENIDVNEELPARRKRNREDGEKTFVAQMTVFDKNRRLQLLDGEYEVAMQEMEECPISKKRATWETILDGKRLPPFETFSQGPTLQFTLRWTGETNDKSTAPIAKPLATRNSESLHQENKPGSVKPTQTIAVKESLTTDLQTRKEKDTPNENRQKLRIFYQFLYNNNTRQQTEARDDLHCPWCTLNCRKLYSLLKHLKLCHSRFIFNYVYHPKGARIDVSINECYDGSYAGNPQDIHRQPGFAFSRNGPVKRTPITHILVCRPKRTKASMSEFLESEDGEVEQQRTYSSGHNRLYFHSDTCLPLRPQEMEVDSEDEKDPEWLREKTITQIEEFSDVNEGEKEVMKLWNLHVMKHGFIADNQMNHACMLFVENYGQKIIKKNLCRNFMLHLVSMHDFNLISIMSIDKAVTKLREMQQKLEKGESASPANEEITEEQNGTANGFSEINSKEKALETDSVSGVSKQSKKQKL
Chain of EZH2 (Q15910 whole entry): as the sequence (Q15910 whole entry Y641N) above, with N641Y counted along it
Chain of EZH2 (O75530 whole entry partner): as the sequence (O75530 whole entry partner) above
Chain of EZH2 (Q15022 whole entry partner): as the sequence (Q15022 whole entry partner) above

Regarding `Cc1cc(C)c(CNC(=O)c2ccc(C(C)C)cc2C)c(=O)[nH]1` [Compound I-1, N-((2-hydroxy-4,6-dimethylpyridin-3-yl)methyl)-4-isopropyl-2-methylbenzamide], the half-inhibitory concentration (IC50) against Y641N EZH2 and against EZH2 was 1 to 10 µM throughout.
For the molecule `Cc1cc(C)c(CNC(=O)c2ccc(C(C)C)cc2Cl)c(=O)[nH]1` [Compound I-2, 2-chloro-N-((2-hydroxy-4,6-dimethylpyridin-3-yl)methyl)-4-isopropyl benzamide], the IC50 on Y641N EZH2 was 1 to 10 µM; against EZH2, below 1 µM.
On to `COC(C)(C)c1ccc(C(=O)NCc2c(C)cc(C)[nH]c2=O)cc1` [Compound I-3, N-((2-hydroxy-4,6-dimethylpyridin-3-yl)methyl)-4-(2-methoxypropan-2-yl)benzamide], for which the values for the half-maximal inhibitory concentration (IC50) at Y641N EZH2 and against EZH2 were above 10 µM and 1 to 10 µM, respectively.
For `COC(C)c1ccc(C(=O)NCc2c(C)cc(C)[nH]c2=O)cc1` (stereo not drawn) [Compound I-4, N-((2-hydroxy-4,6-dimethylpyridin-3-yl)methyl)-4-(1-methoxyethyl)benzamide] the same measures were 1 to 10 µM and below 1 µM.
As for `Cc1cc(C)c(CNC(=O)c2ccc(C(C)OC(C)C)cc2)c(=O)[nH]1` (stereo not drawn) [Compound I-5, N-((2-hydroxy-4,6-dimethylpyridin-3-yl)methyl)-4-(1-isopropoxyethyl)benzamide], the figures for the IC50 at Y641N EZH2 and against EZH2 were 1 to 10 µM and below 1 µM, respectively.
For `Cc1cc(C)c(CNC(=O)c2ccc(COC(C)C)cc2)c(=O)[nH]1` [Compound I-6] the same measures were above 10 µM and above 10 µM.
Regarding `CCOC(C)c1ccc(C(=O)NCc2c(C)cc(C)[nH]c2=O)cc1` (stereo not drawn) [Compound I-7, 4-(1-ethoxyethyl)-N-((2-hydroxy-4,6-dimethylpyridin-3-yl)methyl)benzamide], the half-maximal inhibitory concentration (IC50) at Y641N EZH2 was 1 to 10 µM; against EZH2, below 1 µM.
For `Cc1cc(C)c(CNC(=O)c2ccc(C(C)OCC(C)C)cc2)c(=O)[nH]1` (stereo not drawn) [Compound I-8, N-((2-hydroxy-4,6-dimethylpyridin-3-yl)methyl)-4-(1-isobutoxyethyl)benzamide] the same measures were 1 to 10 µM and below 1 µM.
On to `Cc1cc(C)c(CNC(=O)c2ccc(C(C)C(C)C)cc2)c(=O)[nH]1` (stereo not drawn) [Compound I-9, N-((2-hydroxy-4,6-dimethylpyridin-3-yl)methyl)-4-(3-methylbutan-2-yl)benzamide], for which the half-maximal inhibitory concentration (IC50) was 1 to 10 µM at Y641N EZH2 and below 1 µM against EZH2.
In the case of `CCCC(C)c1ccc(C(=O)NCc2c(C)cc(C)[nH]c2=O)cc1` (stereo not drawn) [Compound I-10, N-((2-hydroxy-4,6-dimethylpyridin-3-yl)methyl)-4-(pentan-2-yl)benzamide], the IC50 against Y641N EZH2 was 1 to 10 µM; against EZH2 it was below 1 µM.
For `Cc1cc(C)c(CNC(=O)c2ccc(C(C)C)c(Oc3ccccc3)c2)c(=O)[nH]1` [Compound I-11, N-((2-hydroxy-4,6-dimethylpyridin-3-yl)methyl)-4-isopropyl-3-phenoxy benzamide] the same measures were above 80 µM and 1 to 10 µM.
For `Cc1cc(C)c(CNC(=O)c2ccc3c(c2)OCC3C)c(=O)[nH]1` (stereo not drawn) [Compound I-12] the same measures were above 80 µM and 1 to 10 µM.
For `Cc1cc(C)c(CNC(=O)c2ccn(C(C)C)c(=O)c2)c(=O)[nH]1` [Compound I-14, N-((2-hydroxy-4,6-dimethylpyridin-3-yl)methyl)-1-isopropyl-2-oxo-1,2-dihydropyridine-4-carboxamide] the same measures were above 80 µM and 1 to 10 µM.
For `Cc1cc(C)c(CNC(=O)c2ccc(C(C)(C)O)cc2)c(=O)[nH]1` [Compound I-20, N-((2-hydroxy-4,6-dimethylpyridin-3-yl)methyl)-4-(2-hydroxypropan-2-yl)benzamide], the values for the concentration for half-maximal inhibition (IC50) at Y641N EZH2 and on EZH2 were above 80 µM and above 10 µM, respectively.
For `CC(=O)NC(C)c1ccc(C(=O)NCc2c(C)cc(C)[nH]c2=O)cc1` (stereo not drawn) [Compound I-29, 4-(1-acetamidoethyl)-N-((2-hydroxy-4,6-dimethylpyridin-3-yl)methyl)benzamide] the same measures were above 80 µM and above 80 µM.
